Non-standard residues stand in square brackets, D forms with d. No end group written: not given here. hArg = N=C(N)NCCCC[C@H](N)C(=O)O; Agb = N=C(N)NCC[C@H](N)C(=O)O; Agp = N=C(N)NC[C@H](N)C(=O)O; Orn = NCCC[C@H](N)C(=O)O; Dab = NCC[C@H](N)C(=O)O; Dap = NC[C@H](N)C(=O)O
System: S. aureus (MRSA SAP0017)
Format: cell-based, Staphylococcus aureus
Conditions: SPOT synthesized control peptides, determined as in Table 5; Table 7
Method: Methods of assessment of anti-biofilm activity: MRSA S. aureus strain SAP0017 biofilm formation was initially analyzed using a static abiotic solid surface assay as described elsewhere (de la Fuente-Nunez et al., 2012) and shown graphically in FIG. 2. Dilutions (1/100) of overnight cultures were incubated in BM2 biofilm-adjusted medium [62 mM potassium phosphate buffer (pH 7), 7 mM (NH4)2SO4, 2 mM MgSO4, 10 μM FeSO4, 0.4% (wt/vol) glucose, 0.5% (wt/vol) Casamino Acids], or a nutrient rich medium such as Tryptic soy broth supplemented with 1% glucose, in polypropylene microtiter plates (Falcon, United States) in the absence (control) or presence of peptide. Peptide was added at time zero (prior to adding the diluted, overnight cultures) in varying concentrations, and the amount biofilm formation was recorded after 22-46 h incubation for most bacteria. To quantify biofilm growth, planktonic cells were removed and biofilm cells adhering to the side of the wells were stained with crystal violet, and absorbance at 595 nm was measured using a microtiter plate reader (Bio-Tek Instruments Inc., United States).

| Substance | % Biofilm Inhibition |
| --- | --- |
| C82 (VRL[hArg]VAVRIWRR) [Peptide C82] | 106% |
| C59 (VR[Agp]IVAVRIWRR-NH2; N-terminus assumed; SMILES CC[C@H](C)[C@H](NC(=O)[C@H](CCCNC(=N)N)NC(=O)[C@@H](NC(=O)[C@H](C)NC(=O)[C@@H](NC(=O)[C@@H](NC(=O)[C@H](CNC(=N)N)NC(=O)[C@H](CCCNC(=N)N)NC(=O)[C@@H](N)C(C)C)[C@@H](C)CC)C(C)C)C(C)C)C(=O)N[C@@H](Cc1c[nH]c2ccccc12)C(=O)N[C@@H](CCCNC(=N)N)C(=O)N[C@@H](CCCNC(=N)N)C(N)=O) [Peptide C59] | 104% |
| C69 (V[Agb]LIVAVRIWRR) [Peptide C69] | 81% |
| C75 (VRLIVAV[Agb]IWRR; not fully specified (C-terminus); printed as VRLIVAVGbutIWRR) [Peptide C75] | 103% |
| C63 (VRLIVA[Agp]RIWRR-NH2; N-terminus assumed; SMILES CC[C@H](C)[C@H](NC(=O)[C@H](CCCNC(=N)N)NC(=O)[C@H](CNC(=N)N)NC(=O)[C@H](C)NC(=O)[C@@H](NC(=O)[C@@H](NC(=O)[C@H](CC(C)C)NC(=O)[C@H](CCCNC(=N)N)NC(=O)[C@@H](N)C(C)C)[C@@H](C)CC)C(C)C)C(=O)N[C@@H](Cc1c[nH]c2ccccc12)C(=O)N[C@@H](CCCNC(=N)N)C(=O)N[C@@H](CCCNC(=N)N)C(N)=O) [Peptide C63] | 105% |
| C95 (V[Dab]LIVAVRIWRR) [Peptide C95] | 71% |
| C103 (VRLIVAVRI[Dab]RR-NH2; N-terminus assumed; SMILES CC[C@H](C)[C@H](NC(=O)[C@H](CCCNC(=N)N)NC(=O)[C@@H](NC(=O)[C@H](C)NC(=O)[C@@H](NC(=O)[C@@H](NC(=O)[C@H](CC(C)C)NC(=O)[C@H](CCCNC(=N)N)NC(=O)[C@@H](N)C(C)C)[C@@H](C)CC)C(C)C)C(C)C)C(=O)N[C@@H](CCN)C(=O)N[C@@H](CCCNC(=N)N)C(=O)N[C@@H](CCCNC(=N)N)C(N)=O) [Peptide C103] | 102% |
| C99 (VRLIV[Dab]VRIWRR; not fully specified (C-terminus)) [Peptide C99] | 100% |
| C110 (VRLIVAVR[Orn]WRR-NH2; N-terminus assumed; SMILES CC[C@H](C)[C@H](NC(=O)[C@H](CC(C)C)NC(=O)[C@H](CCCNC(=N)N)NC(=O)[C@@H](N)C(C)C)C(=O)N[C@H](C(=O)N[C@@H](C)C(=O)N[C@H](C(=O)N[C@@H](CCCNC(=N)N)C(=O)N[C@@H](CCCN)C(=O)N[C@@H](Cc1c[nH]c2ccccc12)C(=O)N[C@@H](CCCNC(=N)N)C(=O)N[C@@H](CCCNC(=N)N)C(N)=O)C(C)C)C(C)C) [Peptide C110] | 100% |
| C89 (VRL[Dap]VAVRIWRR) [Peptide C89] | 99% |
| C88 (VR[Dap]IVAVRIWRR) [Peptide C88] | 104% |
| C87 (V[Dap]LIVAVRIWRR) [Peptide C87] | 73% |
| C100 (VRLIVA[Dab]RIWRR-NH2; N-terminus assumed; SMILES CC[C@H](C)[C@H](NC(=O)[C@H](CCCNC(=N)N)NC(=O)[C@H](CCN)NC(=O)[C@H](C)NC(=O)[C@@H](NC(=O)[C@@H](NC(=O)[C@H](CC(C)C)NC(=O)[C@H](CCCNC(=N)N)NC(=O)[C@@H](N)C(C)C)[C@@H](C)CC)C(C)C)C(=O)N[C@@H](Cc1c[nH]c2ccccc12)C(=O)N[C@@H](CCCNC(=N)N)C(=O)N[C@@H](CCCNC(=N)N)C(N)=O) [Peptide C100] | 104% |
| C97 (VRL[Dab]VAVRIWRR; not fully specified (C-terminus)) [Peptide C97] | 102% |
| C111 (VRLIVAVRI[Orn]RR) [Peptide C111] | 92% |
| C107 (VRL[Orn]VAVRIWRR) [Peptide C107] | 71% |
| C104 (VRLIVAVRIW[Dab]R) [Peptide C104] | 93% |
| C79 (VRLIVAVRIWR[Agb]) [Peptide C79] | 72% |
| C68 (VRLIVAVRIWR[Agp]) [Peptide C68] | 106% |
| C65 (VRLIVAVR[Agp]WRR) [Peptide C65] | 107% |
| C74 (VRLIVA[Agb]RIWRR) [Peptide C74] | 106% |
| C84 (VRLIVA[hArg]RIWRR; not fully specified (C-terminus)) [Peptide C84] | 105% |
| C71 (VRL[Agb]VAVRIWRR; not fully specified (C-terminus); printed as VRLGbutVAVRIWRR) [Peptide C71] | 103% |
| C93 (VRLIVAV[Dap]IWRR) [Peptide C93] | 71% |
| C80 (V[hArg]LIVAVRIWRR) [Peptide C80] | 99% |
| C61 (VRLI[Agp]AVRIWRR-NH2; N-terminus assumed; SMILES CC[C@H](C)[C@H](NC(=O)[C@H](CC(C)C)NC(=O)[C@H](CCCNC(=N)N)NC(=O)[C@@H](N)C(C)C)C(=O)N[C@@H](CNC(=N)N)C(=O)N[C@@H](C)C(=O)N[C@H](C(=O)N[C@@H](CCCNC(=N)N)C(=O)N[C@H](C(=O)N[C@@H](Cc1c[nH]c2ccccc12)C(=O)N[C@@H](CCCNC(=N)N)C(=O)N[C@@H](CCCNC(=N)N)C(N)=O)[C@@H](C)CC)C(C)C) [Peptide C61] | 101% |
| C66 (VRLIVAVRI[Agp]RR) [Peptide C66] | 107% |

Same assay, conditions: SPOT synthesized peptide, ~12.5 μM, clinical MRSA strain, crystal violet assay

| Substance | % Residual MRSA biofilm growth compared to untreated control |
| --- | --- |
| RQVRVKRWRARW (RQVRVKRWRARW-NH2) [Mmax-18] | 100% |
| VRLIVAVHarIWRR (VRLIVAV[hArg]IWRR-NH2; N-terminus assumed; SMILES CC[C@H](C)[C@H](NC(=O)[C@H](CCCCNC(=N)N)NC(=O)[C@@H](NC(=O)[C@H](C)NC(=O)[C@@H](NC(=O)[C@@H](NC(=O)[C@H](CC(C)C)NC(=O)[C@H](CCCNC(=N)N)NC(=O)[C@@H](N)C(C)C)[C@@H](C)CC)C(C)C)C(C)C)C(=O)N[C@@H](Cc1c[nH]c2ccccc12)C(=O)N[C@@H](CCCNC(=N)N)C(=O)N[C@@H](CCCNC(=N)N)C(N)=O) [Peptide 1018-r32] | 45% |
| VRLIVAVRIWRHar (VRLIVAVRIWR[hArg]-NH2; N-terminus assumed; SMILES CC[C@H](C)[C@H](NC(=O)[C@H](CCCNC(=N)N)NC(=O)[C@@H](NC(=O)[C@H](C)NC(=O)[C@@H](NC(=O)[C@@H](NC(=O)[C@H](CC(C)C)NC(=O)[C@H](CCCNC(=N)N)NC(=O)[C@@H](N)C(C)C)[C@@H](C)CC)C(C)C)C(C)C)C(=O)N[C@@H](Cc1c[nH]c2ccccc12)C(=O)N[C@@H](CCCNC(=N)N)C(=O)N[C@@H](CCCCNC(=N)N)C(N)=O) [Peptide 1018-r36] | 27% |
| VRLIVOrnVRIWRR (VRLIV[Orn]VRIWRR-NH2; N-terminus assumed; SMILES CC[C@H](C)[C@H](NC(=O)[C@H](CCCNC(=N)N)NC(=O)[C@@H](NC(=O)[C@H](CCCN)NC(=O)[C@@H](NC(=O)[C@@H](NC(=O)[C@H](CC(C)C)NC(=O)[C@H](CCCNC(=N)N)NC(=O)[C@@H](N)C(C)C)[C@@H](C)CC)C(C)C)C(C)C)C(=O)N[C@@H](Cc1c[nH]c2ccccc12)C(=O)N[C@@H](CCCNC(=N)N)C(=O)N[C@@H](CCCNC(=N)N)C(N)=O) [Peptide 1018-k30] | 27% |
| VRLIVAVRIWHarR (VRLIVAVRIW[hArg]R-NH2; N-terminus assumed; SMILES CC[C@H](C)[C@H](NC(=O)[C@H](CCCNC(=N)N)NC(=O)[C@@H](NC(=O)[C@H](C)NC(=O)[C@@H](NC(=O)[C@@H](NC(=O)[C@H](CC(C)C)NC(=O)[C@H](CCCNC(=N)N)NC(=O)[C@@H](N)C(C)C)[C@@H](C)CC)C(C)C)C(C)C)C(=O)N[C@@H](Cc1c[nH]c2ccccc12)C(=O)N[C@@H](CCCCNC(=N)N)C(=O)N[C@@H](CCCNC(=N)N)C(N)=O) [Peptide 1018-r35] | 33% |
| VRLIVHarVRIWRR (VRLIV[hArg]VRIWRR-NH2; N-terminus assumed; SMILES CC[C@H](C)[C@H](NC(=O)[C@H](CCCNC(=N)N)NC(=O)[C@@H](NC(=O)[C@H](CCCCNC(=N)N)NC(=O)[C@@H](NC(=O)[C@@H](NC(=O)[C@H](CC(C)C)NC(=O)[C@H](CCCNC(=N)N)NC(=O)[C@@H](N)C(C)C)[C@@H](C)CC)C(C)C)C(C)C)C(=O)N[C@@H](Cc1c[nH]c2ccccc12)C(=O)N[C@@H](CCCNC(=N)N)C(=O)N[C@@H](CCCNC(=N)N)C(N)=O) [Peptide 1018-r30] | 57% |
| VOrnLIVAVRIWRR (V[Orn]LIVAVRIWRR-NH2; N-terminus assumed; SMILES CC[C@H](C)[C@H](NC(=O)[C@H](CCCNC(=N)N)NC(=O)[C@@H](NC(=O)[C@H](C)NC(=O)[C@@H](NC(=O)[C@@H](NC(=O)[C@H](CC(C)C)NC(=O)[C@H](CCCN)NC(=O)[C@@H](N)C(C)C)[C@@H](C)CC)C(C)C)C(C)C)C(=O)N[C@@H](Cc1c[nH]c2ccccc12)C(=O)N[C@@H](CCCNC(=N)N)C(=O)N[C@@H](CCCNC(=N)N)C(N)=O) [Peptide 1018-k26] | 63% |

From patent US20210138025A1, “CATIONIC PEPTIDES WITH IMMUNOMODULATORY AND/OR ANTI-BIOFILM ACTIVITIES” (priority 2018, published 2021)
